From ChEMBL document CHEMBL1147864, “Synthesis of new sugar derivatives from Stachys sieboldi Miq and antibacterial evaluation against Mycobacterium tuberculosis, Mycobacterium avium, and Staphylococcus aureus” (2007)
≈ marks a conversion by molar mass, not a printed value.

Experiments:
Format in all cases: functional
Conditions in all cases: 336 h
[1] = system: Mycobacterium tuberculosis; assay: Antimycobacterial activity against isoniazide-rifampicin-streptomycin-ethambutol-resistant Mycobacterium tuberculosis A-2-6 after 2 weeks by broth dilution method
[2] = system: Mycobacterium tuberculosis; assay: Antimycobacterial activity against isoniazide-rifampicin-streptomycin-ethambutol-resistant Mycobacterium tuberculosis U-2-15 after 2 weeks by broth dilution method
[3] = system: Mycobacterium tuberculosis; assay: Antimycobacterial activity against isoniazide-streptomycin resistant Mycobacterium tuberculosis A-4-25 after 2 weeks by broth dilution method
[4] = system: Mycobacterium tuberculosis; assay: Antimycobacterial activity against streptomycin resistant Mycobacterium tuberculosis A-4-8 after 2 weeks by broth dilution method
[5] = system: Mycobacterium tuberculosis; assay: Antimycobacterial activity against isoniazide-rifampicin-streptomycin-ethambutol-resistant Mycobacterium tuberculosis S-1-14 after 2 weeks by broth dilution method
[6] = system: Mycobacterium tuberculosis; assay: Antimycobacterial activity against isoniazide resistant Mycobacterium tuberculosis K-3-6 after 2 weeks by broth dilution method
[7] = system: Mycobacterium tuberculosis; assay: Antimycobacterial activity against isoniazide-rifampicin-streptomycin-ethambutol-resistant Mycobacterium tuberculosis C-1-29 after 2 weeks by broth dilution method
[8] = system: Mycobacterium tuberculosis; assay: Antimycobacterial activity against isoniazide-rifampicin-streptomycin-ethambutol-resistant Mycobacterium tuberculosis R-1-38 after 2 weeks by broth dilution method
[9] = system: Mycobacterium tuberculosis; assay: Antimycobacterial activity against isoniazide-rifampicin-ethambutol-resistant Mycobacterium tuberculosis N-4-11 after 2 weeks by broth dilution method
[10] = system: Mycobacterium tuberculosis; assay: Antimycobacterial activity against streptomycin resistant Mycobacterium tuberculosis A-3-47 after 2 weeks by broth dilution method
[11] = system: Mycobacterium tuberculosis; assay: Antimycobacterial activity against isoniazide-rifampicin-streptomycin-ethambutol-resistant Mycobacterium tuberculosis U-4-6 after 2 weeks by broth dilution method
[12] = system: Mycobacterium tuberculosis; assay: Antimycobacterial activity against isoniazide-rifampicin resistant Mycobacterium tuberculosis A-2-3 after 2 weeks by broth dilution method
[13] = system: Mycobacterium tuberculosis; assay: Antimycobacterial activity against isoniazide resistant Mycobacterium tuberculosis A-2-1 after 2 weeks by broth dilution method
[14] = system: Mycobacterium tuberculosis; assay: Antimycobacterial activity against isoniazide-rifampicin-streptomycin-ethambutol-resistant Mycobacterium tuberculosis Z-1-4 after 2 weeks by broth dilution method
[15] = system: Mycobacterium tuberculosis; assay: Antimycobacterial activity against isoniazide-rifampicin-streptomycin-ethambutol-resistant Mycobacterium tuberculosis V-1-16 after 2 weeks by broth dilution method
[16] = system: Mycobacterium tuberculosis; assay: Antimycobacterial activity against isoniazide-rifampicin-streptomycin-ethambutol-resistant Mycobacterium tuberculosis P-1-50 after 2 weeks by broth dilution method
[17] = system: Mycobacterium tuberculosis; assay: Antimycobacterial activity against isoniazide-rifampicin-streptomycin-ethambutol-resistant Mycobacterium tuberculosis Q-4-1 after 2 weeks by broth dilution method
[18] = system: Mycobacterium tuberculosis; assay: Antimycobacterial activity against rifampicin resistant Mycobacterium tuberculosis A-2-4 after 2 weeks by broth dilution method
[19] = system: Mycobacterium tuberculosis; assay: Antimycobacterial activity against isoniazide-rifampicin-streptomycin-ethambutol-resistant Mycobacterium tuberculosis E-1-40 after 2 weeks by broth dilution method
[20] = system: Mycobacterium tuberculosis; assay: Antimycobacterial activity against isoniazide-rifampicin-ethambutol-resistant Mycobacterium tuberculosis A-4-30 after 2 weeks by broth dilution method
[21] = system: Mycobacterium tuberculosis; assay: Antimycobacterial activity against isoniazide-rifampicin-streptomycin-ethambutol-resistant Mycobacterium tuberculosis M-1-32 after 2 weeks by broth dilution method
[22] = system: Mycobacterium tuberculosis; assay: Antimycobacterial activity against isoniazide-rifampicin-ethambutol-resistant Mycobacterium tuberculosis J-1-19 after 2 weeks by broth dilution method
[23] = system: Mycobacterium tuberculosis; assay: Antimycobacterial activity against isoniazide-rifampicin-streptomycin-ethambutol-resistant Mycobacterium tuberculosis P-4-11after 2 weeks by broth dilution method
[24] = system: Mycobacterium tuberculosis; assay: Antimycobacterial activity against isoniazide-rifampicin-streptomycin-ethambutol-resistant Mycobacterium tuberculosis N-5-2 after 2 weeks by broth dilution method
[25] = system: Mycobacterium tuberculosis; assay: Antimycobacterial activity against isoniazide-rifampicin-streptomycin-ethambutol-resistant Mycobacterium tuberculosis Z-1-2 after 2 weeks by broth dilution method

Work on C=CCO[C@@H]1O[C@H](CO[C@H]2O[C@H](CO[C@H]3O[C@H](COC(C)=O)[C@H](OC(C)=O)[C@H](OC(C)=O)[C@H]3OC(C)=O)[C@H](OC(C)=O)[C@H](OC(C)=O)[C@H]2OC(C)=O)[C@@H](OC(C)=O)[C@H](OC(C)=O)[C@H]1OC(C)=O yielded an MIC [1] of 6.25 µg/mL (≈ 6.48 µM), an MIC [2] of 6.25 µg/mL (≈ 6.48 µM) and an MIC [3] of 12.5 µg/mL (≈ 13 µM). It also gave an MIC [4] of 6.25 µg/mL (≈ 6.48 µM), an MIC [5] of 6.25 µg/mL (≈ 6.48 µM) and an MIC [6] of 3.13 µg/mL (≈ 3.24 µM). It also gave an MIC [7] of 12.5 µg/mL (≈ 13 µM), an MIC [8] of 6.25 µg/mL (≈ 6.48 µM) and an MIC [9] of 3.13 µg/mL (≈ 3.24 µM). It also gave an MIC [10] of 3.13 µg/mL (≈ 3.24 µM), an MIC [11] of 1.56 µg/mL (≈ 1.62 µM) and an MIC [12] of 3.13 µg/mL (≈ 3.24 µM). It also gave an MIC [13] of 3.13 µg/mL (≈ 3.24 µM), an MIC [14] of 6.25 µg/mL (≈ 6.48 µM) and an MIC [15] of 6.25 µg/mL (≈ 6.48 µM). It also gave an MIC [16] of 3.13 µg/mL (≈ 3.24 µM), an MIC [17] of 6.25 µg/mL (≈ 6.48 µM) and an MIC [18] of 12.5 µg/mL (≈ 13 µM). The MIC [19] was 6.25 µg/mL (≈ 6.48 µM), the MIC [20] was 6.25 µg/mL (≈ 6.48 µM) and the MIC [21] was 3.13 µg/mL (≈ 3.24 µM). For the same compound, the MIC [22] was 3.13 µg/mL (≈ 3.24 µM), the MIC [23] was 3.13 µg/mL (≈ 3.24 µM) and the MIC [24] was 3.13 µg/mL (≈ 3.24 µM). For the same compound, the MIC [25] was 3.13 µg/mL (≈ 3.24 µM).
